Measured values: US9763980B2, “Combined chemical modification of sphingosine-1-phosphate (S1P) and CXCR4 signalling pathways for hematopoietic stem cell (HSC) mobilization and engraftment” (Children's Medical Center Corporation, priority 2011, dated 2017)

Key:
[1] = tested on: CHT hematopoiesis (HSPC markers cmyb and runx1 in the CHT); test: Zebrafish embryo chemical treatment and dose matrices, whole mount in situ hybridization of cmyb/runx1 in the CHT; assay type: in vivo
Description: Transgenic zebrafish embryos were intercrossed and selected using epifluorescence (e.g. Runx1+23:EGFP, cmyb:EGFP^4, cd41:EGFP^2, kdrl:DsRed2^31). Live imaging was performed using a spinning disk confocal microscope with an incubated chamber. Zebrafish embryos were mounted and imaged as previously described. Live mouse fetal liver explants were prepared as previously described for aorta-gonad-mesonephros tissue^10. Image processing was done primarily with Fluorender^32 and ImageJ, which included the MTrackJ plugin^33 for manual cell tracking. For chemical screening and dose matrices, stage-matched AB embryos were dechorionated and arrayed 8-10/well in 96-well mesh-bottomed plates (Millipore). Embryos were treated from 48-72 hpf by placement directly in 96-well receiver plates containing small molecules diluted in E3 media+1% DMSO. Embryos were checked for circulation before fixation. Whole mount in situ hybridization was performed as previously described^34, with the addition of 0.2% glutaraldehyde to 4% formaldehyde at the post-fixation step. […] Lineage tracing was performed by injecting cd41:EGFP positive embryos with caged fluorescein conjugated to dextran (MW 10000). Embryos were uncaged in the DA at 28 hpf with a UV laser. Embryos were raised to 46 hpf in E3 media or E3+S1PR1 antagonist W146 (10 μM), then fixed for antibody staining to detect double positive cd41:EGFP and uncaged FITC HSPCs. Receptor fusion cDNAs (25 pg) were injected into one-cell embryos with Tol2 RNA (15 pg). Flow cytometry was performed using a LSR II and cells were sorted using a FACSAria (BD Biosciences). Flow cytometry data was analyzed using FACSDiva and FlowJo software.
Having followed newly born aortic HSPCs to the intermediate tissue, the inventors assessed the signaling pathways involved in embryonic migration. The inventors designed a chemical genetic screen to introduce small molecules to the zebrafish embryo from the peak window of HSPC migration to the CHT (48-72 hpf).

[2] = tested on: HSC; conditions: Massberg et al.; cited from earlier work
[3] = tested on: peripheral lymphocyte; conditions: in vivo; cited from earlier work
[4] = clinical trials; due to agonism of the S1P3 receptor; cited from earlier work
[5] = tested on: autoimmune myocarditis; conditions: rat model for autoimmune myocarditis; cited from earlier work
[6] = tested on: acute viral myocarditis; conditions: mouse model for acute viral myocarditis; cited from earlier work
[7] = tested on: inflammatory bowel disease including colitis; conditions: mouse models for inflammatory bowel disease including colitis; cited from earlier work
[8] = tested on: progressive mesangioproliferative glomerulonephritis; conditions: rat model for progressive mesangioproliferative glomerulonephritis; cited from earlier work
[9] = tested on: asthma; conditions: mouse model for asthma; cited from earlier work
[10] = tested on: airway inflammation and induction of bronchial hyperresponsiveness; conditions: mouse model for airway inflammation and induction of bronchial hyperresponsiveness; cited from earlier work
[11] = tested on: atopic dermatitis; conditions: mouse model for atopic dermatitis; cited from earlier work
[12] = tested on: ischemia-reperfusion injury; conditions: mouse model for ischemia-reperfusion injury; cited from earlier work
[13] = tested on: systemic lupus erythematosus (SLE); conditions: mouse model for systemic lupus erythematosus (SLE); cited from earlier work
[14] = tested on: rheumatoid arthritis; conditions: rat models for rheumatoid arthritis; cited from earlier work
[15] = tested on: autoimmune uveitis; conditions: rat model for autoimmune uveitis; cited from earlier work
[16] = tested on: atherosclerosis; conditions: mouse models for atherosclerosis; cited from earlier work
[17] = tested on: brain inflammatory reaction following traumatic brain injury (TBI); conditions: rat model for brain inflammatory reaction following traumatic brain injury (TBI); cited from earlier work
[18] = tested on: graft coronary artery disease and graft-versus-host disease (GVHD); conditions: mouse models for graft coronary artery disease and graft-versus-host disease (GVHD); cited from earlier work
[19] = tested on: experimental autoimmune encephalomyelitis (EAE); conditions: EAE in rats, a model for human multiple sclerosis; cited from earlier work
[20] = tested on: multiple sclerosis; conditions: cited from earlier work
[21] = Phase II clinical trials, relapsing-remitting multiple sclerosis

## CCCCCCCCc1ccc(CCC(N)(CO)CO)cc1 [FTY720, 2-amino-2-[2-(4-octylphenyl)ethyl]propane-1,3-diol]
[1]; 15 μM AMD3100 and 5 μM FTY720
  CHT score (greatest engraftment in dose matrix): +2
[1]; 3:1 ratio of FTY720:AMD3100
  HSC engraftment: promote and enhance HSC engraftment
[1]; 5:1 ratio of FTY720:AMD3100
  migration of HSC from the bone marrow: promote migration of HSC
[1]; FTY720 5 μM alone, treatment from 48 hpf, 72 hpf embryos
  cmyb/runx1 expression in the CHT: little effect
[1]; FTY720 (5μM) combined with AMD3100 (15μM)
  CHT hematopoiesis: increase
[1]; FTY720 with increased AMD3100 dose
  CHT hematopoiesis: greatly reduced
[1]; combination of FTY720 and AMD3100 at specific combined doses (interaction matrix)
  CHT hematopoiesis: increased
[1]; combination with AMD3100
  Experimental data: concentration of S1PR1 modulating agent in the combination effective at increasing HSC engraftment: 5 µM
  Experimental data: concentration of S1PR1 modulating agent in the combination effective at increasing HSC mobilization: 5 μM FTY720
[1]; combination with AMD3100 in specific ratios
  mobilization of HSC from the bone marrow in vivo: improves mobilization
[1]; dose matrices, agent combined with AMD3100
  CHT hematopoiesis: synergistic increases
[1]; each agent alone at the doses of the effective FTY720/AMD3100 combination
  CHT hematopoiesis: no effect
[2]
  HSC egress from tissues: blocked
[3]
  lymphopenia (peripheral lymphocyte lowering): rapidly and reversibly induce lymphopenia
[4]
  adverse event: transient asymptomatic bradycardia
[5]
  therapeutic efficacy: therapeutic efficacy
[6]
  therapeutic efficacy: therapeutic efficacy
[7]
  therapeutic efficacy: therapeutic efficacy
[8]
  therapeutic efficacy: therapeutic efficacy
[9]
  therapeutic efficacy: therapeutic efficacy
[10]
  therapeutic efficacy: therapeutic efficacy
[11]
  therapeutic efficacy: therapeutic efficacy
[12]
  therapeutic efficacy: therapeutic efficacy
[13]
  therapeutic efficacy: therapeutic efficacy
[14]
  therapeutic efficacy: therapeutic efficacy
[15]
  therapeutic efficacy: therapeutic efficacy
[16]
  therapeutic efficacy: therapeutic efficacy
[17]
  therapeutic efficacy: therapeutic efficacy
[18]
  therapeutic efficacy: therapeutic efficacy
[19]
  therapeutic efficacy: therapeutic efficacy
[20]; [21]
  clinical disease activity: reduce
  number of lesions detected by magnetic resonance imaging (MRI): reduce
[20]; multiple sclerosis, clinical trials
  therapeutic efficacy: therapeutic efficacy
